Columns and labels:
human 20S proteasome = target: T1, human 20S proteasome (Homo sapiens, UniProt P28072+P28074+Q99436); test: In vitro proteasome activity assay (Suc-LLVY-AMC, Z-LLE-AMC, Boc-LRR-AMC); assay type: biochemical; details: molar excess of b-AP15
T1 construct: purchased Boston Biochem E-360
Procedure: 20S CP contains the β1, β2 and […] proteolytic subunits responsible for caspase-like, trypsin-like and chymotrypsin-like activities of the proteasome, respectively (18).
In vitro proteasome activity assays were performed in black 96-well microtiter plates using human 20S proteasome (Boston Biochem) in reaction buffer (25 mM Hepes, 0.5 mM EDTA, 0.03% SDS) with Suc-LLVY-AMC, Z-LLE-AMC or Boc-LRRAMC used as substrates for proteasome activity. De-ubiquitinase activity assays were performed with human 19S RP (Boston Biochem) with ubiquitin-AMC as substrate. For xenograft studies a 100-μl-cell suspension containing 1×10^6 FaDu head-neck or 2×10^5 Lewis Lung Carcinoma (LLC) cells were injected subcutaneously into the flank of SCID or C57BL/6J mice. Upon tumor take mice were randomized into control or treatment groups and administered with 5 mg kg^−1 b-AP15 or vehicle. In vivo levels of apoptosis and cell death were determined from the detection of caspase cleaved and total levels of cytokeratin-18 in plasma using M30 Apoptosense® and M65 ELISA®s assays (Peviva). […]
In vitro proteasome activity assays using 20S CP (2 nM) (Boston Biochem) were performed at 37° C. in 100-μl reaction buffer (25 mM Hepes, 0.5 mM EDTA, 0.03% SDS). […] Fluorescence was monitored using Wallac Multilabel counter or Tecan Infinite M1000 equipped with 360 nm excitation and 460 nm emission filters. […]

[1] = system: isogenic clones of HCT116 colon cancer cells; test: Apoptosis in isogenic HCT116 clones, caspase cleaved cytokeratin-18 ELISA; assay type: cell-based
Procedure: The increase in sub G1 DNA content is associated with (i) activation of the apoptosis mediator caspase-3 and (ii) with cleavage of the caspase substrates poly-ADP ribose polymerase (PARP) and cytokeratin-18. […] Apoptosis induction by bortezomib is dependent on p53 and inhibited by overexpression of the Bcl-2 protein (16,17).
For determination of apoptosis parental HCT-116 p53+/+ cells were treated with the increasing doses of bortezomib or b-AP15 for 24 h. […] HCT-116 cells were seeded in 96-well microtiter plates at 10,000 cells per well and incubated overnight. Cells were treated with indicated drug for 24 h. At the end of the incubation period, NP40 was added to the tissue culture medium to 0.1% and 25 μl of the content of each well was assayed using the M30-Apoptosense® ELISA as previously described (43). Cell viability was determined by measuring acid phosphatase activity or using the FMCA method (44). For the acid phosphatase activity cells were seeded at 5000 cells per well in 96-well culture plates and incubated for 12 h at 37° C. Compounds were added to the cells in growth media and incubated for 72 h at 37° C. Cells were washed with 200 μl warm PBS. […] Absorbance was measured at 405 nm.
b-AP15 inhibits degradation of ubiquitin-tagged YFP in a proteasome reporter cell line (FIG. 1a). Levels of ^UbG76V-YFP accumulation were determined by flow cytometry and immunoblotting; immunoblot of ubiquitin conjugation in HCT-116 cells treated with b-AP15 (1 μM) or bortezomib (100 nM) (FIG. 1b). […] Immunoblot of ODC-1 levels in HCT-116 cells following treatment with bortezomib ([…] or b-Ap15 (1 μM) (FIG. 1d); values represent quantified optical density units of ODC-1 normalized to β-actin. Cell cycle profiles of b-AP15 treated HCT-116 cells (FIG. 1e); cells were analyzed by propidium iodide staining and flow cytometry. Levels of caspase activity in isogenic HCT-116 cells as determined by ELISA for caspase cleaved cytokeratin-18 (CK18-Asp398) following treatment with bortezomib (100 nM) or b-AP15 (1 μM) (**′P=0.01, ***′P=0.001) (FIG. 1f). […]

Q: How did the “caspase-like, trypsin-like and chymotrypsin-like activities of the proteasome” value (human 20S proteasome) turn out when `C=CC(=O)N1C/C(=C\c2ccc([N+](=O)[O-])cc2)C(=O)/C(=C/c2ccc([N+](=O)[O-])cc2)C1` [b-AP15] was run?
A: Its value is “do not show alteration”.

Q: What about the “apoptosis: effect of genetic disruption of BAX or PUMA” value [1] of the same compound?
A: Its value is “does not affect b-AP15 sensitivity”.

Q: And the “caspase cleavage of cytokeratin-18: effect of p53 disruption or Bcl-2 overexpression” value [1]?
A: The value was “not affected by genetic disruption of p53 or overexpression of Bcl-2”.

Reference: patent US9856511B2, “Protease deubiquitinating inhibitor screening” (priority 2011, dated 2018)
